From ChEMBL document CHEMBL1201862, “PubChem BioAssay data set” (2004)
Activity calls are given as the source filed them.

Legend:
[1] = growth suppression of PTEN-null colon cells, dose response, cell-based, HCT116 PTEN knockout (AID 1047); type: functional;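 note: HCT116 colon tumor cells with PTEN knocked out; cells exposed to compound for 60 hours before readout; potency for loss of cell viability measured by luminescence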
[2] = growth suppression of beta-catenin-knockout colon cells, dose response, cell-based, HCT116, human colon tumor (AID 1045); type: functional;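 note: HCT116 colon tumor cells with beta catenin knocked out; cells exposed to compound for 60 hours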
[3] = Luminescence Cell-Based Dose Retest to Confirm Inhibitors of Cancer Stem Cells. [Related pubchem assays (depositor defined):AID2717, AID2721]; type: functional; settings: Homo sapiens
Insulin-degrading enzyme [4] = molecular target: T1, Insulin-degrading enzyme (Homo sapiens, UniProt P14735); test: activators of recombinant IDE enzyme, dose response, counter-screen for IDE activator project, biochemical, fluorescence polarization (AID 588681)
T1 sequence (P14735 whole entry): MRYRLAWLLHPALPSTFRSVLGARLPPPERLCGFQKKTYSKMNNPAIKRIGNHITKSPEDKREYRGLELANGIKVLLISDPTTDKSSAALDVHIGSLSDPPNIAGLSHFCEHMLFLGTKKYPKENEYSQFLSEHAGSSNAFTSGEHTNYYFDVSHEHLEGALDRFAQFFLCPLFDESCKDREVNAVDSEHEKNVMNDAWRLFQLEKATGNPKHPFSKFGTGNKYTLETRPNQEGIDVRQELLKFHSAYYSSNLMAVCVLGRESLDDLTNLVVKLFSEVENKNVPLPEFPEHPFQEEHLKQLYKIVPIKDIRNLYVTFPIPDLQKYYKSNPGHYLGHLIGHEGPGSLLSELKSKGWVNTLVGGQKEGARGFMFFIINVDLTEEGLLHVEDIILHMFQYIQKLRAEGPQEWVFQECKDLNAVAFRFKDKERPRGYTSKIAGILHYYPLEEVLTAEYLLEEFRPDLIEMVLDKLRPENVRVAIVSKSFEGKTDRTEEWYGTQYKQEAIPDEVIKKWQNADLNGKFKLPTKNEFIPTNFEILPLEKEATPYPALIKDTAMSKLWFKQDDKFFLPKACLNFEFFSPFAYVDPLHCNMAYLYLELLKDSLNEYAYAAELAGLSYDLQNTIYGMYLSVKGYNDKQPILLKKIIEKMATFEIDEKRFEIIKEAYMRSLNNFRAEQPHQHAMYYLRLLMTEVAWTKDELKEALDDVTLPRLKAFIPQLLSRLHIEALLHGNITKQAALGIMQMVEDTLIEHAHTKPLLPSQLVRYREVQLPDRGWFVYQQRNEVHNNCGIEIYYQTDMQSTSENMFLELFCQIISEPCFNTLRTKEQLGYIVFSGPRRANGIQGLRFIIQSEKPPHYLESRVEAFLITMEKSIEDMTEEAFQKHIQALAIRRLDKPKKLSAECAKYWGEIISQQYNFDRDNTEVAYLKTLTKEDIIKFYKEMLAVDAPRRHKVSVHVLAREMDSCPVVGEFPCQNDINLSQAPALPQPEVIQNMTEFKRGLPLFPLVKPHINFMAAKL

Insulin-degrading enzyme [5] = molecular target: T1, Insulin-degrading enzyme; test: activators of endogenous IDE in HEK cells, dose response, cell-based, fluorescence polarization (AID 588439); type: functional
INS1 = test: beta cell apoptosis inhibitors, cytokine rescue, dose response, luminescence, retest (AID 449756); type: functional, cell-based; settings: Rattus norvegicus;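 note: cell death triggered by IL-1 beta plus TNF-alpha plus IFN-gamma mixture; protective hits raise ATP signal compared with cytokine alone wells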
HEK293 [6] = test: HEK cell cytotoxicity by LDH release, dose response, cytotoxicity control for IDE activator project, fluorescence, HEK cells (AID 588440); type: functional, cell-based; settings: Homo sapiens;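 note: cytotoxicity by LDH release measuring loss of membrane integrity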
HEK293 [7] = test: optical interference in Abeta FP readout, dose response, artefact control for IDE activator project, biochemical, fluorescence polarization (AID 588442); type: functional, cell-based; settings: Homo sapiens
[8] = Shn3 3'UTR reporter inhibitors, dose response, cell-based, Clone20 osteoblasts, firefly luciferase, cherry-picked (AID 624132); type: functional;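 note: firefly luciferase luminescence from reporter carrying the Shn3 3'UTR in osteoblasts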
[9] = HepG2 cell cytotoxicity, dose response, cytotoxicity control for Shn3 inhibitor project, CellTiter-Glo, cherry-picked (AID 624134); type: functional, cell-based
[10] = control 3'UTR Renilla luciferase suppression, dose response, counter-screen for Shn3 inhibitor project, cell-based, Clone20-Shn3RL, cherry-picked (AID 624133); type: functional
Cytochrome P450 1A2 = molecular target: T2, Cytochrome P450 1A2 (Homo sapiens, UniProt P05177);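 note: PubChem cytochrome P450 panel assay, CYP1A2 panel member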
T2 sequence (P05177 whole entry): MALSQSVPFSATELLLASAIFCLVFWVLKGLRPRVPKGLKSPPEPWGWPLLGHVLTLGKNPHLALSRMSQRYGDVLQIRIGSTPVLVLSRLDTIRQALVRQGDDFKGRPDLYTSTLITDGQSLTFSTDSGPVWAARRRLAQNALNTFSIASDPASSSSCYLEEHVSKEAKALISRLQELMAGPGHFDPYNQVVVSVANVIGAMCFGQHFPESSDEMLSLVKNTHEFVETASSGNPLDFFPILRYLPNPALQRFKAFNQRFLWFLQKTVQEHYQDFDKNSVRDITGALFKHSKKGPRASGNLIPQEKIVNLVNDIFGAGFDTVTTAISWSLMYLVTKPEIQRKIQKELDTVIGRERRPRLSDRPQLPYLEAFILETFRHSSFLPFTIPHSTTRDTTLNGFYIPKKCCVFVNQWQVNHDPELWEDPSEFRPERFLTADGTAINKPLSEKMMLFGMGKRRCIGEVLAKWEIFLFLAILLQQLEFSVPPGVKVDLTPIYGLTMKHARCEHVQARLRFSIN

Beta-lactamase [11] = molecular target: Beta-lactamase (Pseudomonas aeruginosa, UniProt Q79MP6);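 note: biochemical dose-response test of metallo-beta-lactamase enzyme inhibition, read out by epi-absorbance; purified recombinant IMP-1 metallo-beta-lactamase with nitrocefin as substrate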
Beta-lactamase (Pseudomonas aeruginosa, UniProt Q79MP6), sequence (Q79MP6 whole entry): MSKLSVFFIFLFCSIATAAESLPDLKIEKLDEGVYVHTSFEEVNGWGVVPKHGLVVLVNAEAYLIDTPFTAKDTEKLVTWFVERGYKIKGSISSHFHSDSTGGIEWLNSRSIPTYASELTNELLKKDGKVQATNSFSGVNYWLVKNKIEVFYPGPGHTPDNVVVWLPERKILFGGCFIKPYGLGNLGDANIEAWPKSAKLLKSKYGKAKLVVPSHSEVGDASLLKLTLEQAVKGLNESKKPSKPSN

Beta-lactamase [12] = molecular target: Beta-lactamase (Salmonella choleraesuis (strain SC-B67), UniProt Q5J463)
Beta-lactamase (Salmonella choleraesuis (strain SC-B67), UniProt Q5J463), sequence (Q5J463 whole entry, the tested form may be a part): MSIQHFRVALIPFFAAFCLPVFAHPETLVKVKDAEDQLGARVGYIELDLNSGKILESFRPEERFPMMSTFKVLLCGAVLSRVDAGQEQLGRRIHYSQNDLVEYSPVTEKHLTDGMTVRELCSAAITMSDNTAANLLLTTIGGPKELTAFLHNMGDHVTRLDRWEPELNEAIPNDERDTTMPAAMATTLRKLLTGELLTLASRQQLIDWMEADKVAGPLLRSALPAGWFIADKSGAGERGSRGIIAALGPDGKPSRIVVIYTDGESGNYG

CHO = test: cytotoxicity in TLR9-MyD88 CHO cells, dose response, cytotoxicity control for TLR9-MyD88 binding inhibitor project, cell-based, luminescence (AID 588339); type: functional, hamster; settings: Cricetulus griseus;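 note: CHO cells stably coexpressing TLR9 and MyD88 fusions from primary screen; compound exposure lasted 48 hours before viability readout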

Compound	EC50 [1]	EC50 [2]	AC50 [3]	EC50 (Insulin-degrading enzyme [4])	EC50 (Insulin-degrading enzyme [5])	AC50 (INS1)	IC50 (HEK293 [6])	EC50 (HEK293 [7])	AC50 [8]	AC50 [9]	AC50 [10]	AC50 (Cytochrome P450 1A2)	IC50 (Beta-lactamase [11])	IC50 (Beta-lactamase [12])	IC50 (CHO)
COc1ccc(Cn2c(SCc3ccccc3C)nc3cc(OC)c(OC)cc3c2=N)cc1	4.85 µM (active)	3.81 µM (active)	2.71 µM (active)	> 54.7 µM (inactive)	9.39 µM (active)	4.3 µM (active)	18.5 µM (inactive)	> 54.7 µM (inactive)	5.46 µM (active)	12.8 µM (active)	16 µM (active)	15.8 µM (inconclusive)			
CCCCNc1ccc2c3c(cccc13)C(=O)N(CCCC)C2=O				> 54.7 µM (inactive)	> 54.7 µM (inactive)		> 89.1 µM (inactive)	12.1 µM (inactive)					37.2 µM (inactive)	3.89 µM (active)	> 49.7 µM (inactive)
